Test results from patent US6329421A, “Diaryl bicyclic heterocycles as inhibitors of cyclooxygenase-2” (Merck Frosst Canada & Co., priority 1997, dated 2001).

Tests used:
[1] = target: T1, cyclooxygenase-2 (Homo sapiens, UniProt P35354); test: Inhibition of cyclooxygenase activity: Cox-2 (PGE2 production in response to arachidonic acid, radioimmunoassay; human osteosarcoma 143 cells); format: cell-based; details: read-out: Cox-2% inhib.; for inhibition at 0.1 µM: Conc. 100 nM; for inhibition at 1 µM: Conc. 1000 nM
T1 construct: human osteosarcoma 143 cells (which specifically express cyclooxygenase-2); endogenous in cells; host or cells: human osteosarcoma 143 cells
T1 sequence (P35354 18-604): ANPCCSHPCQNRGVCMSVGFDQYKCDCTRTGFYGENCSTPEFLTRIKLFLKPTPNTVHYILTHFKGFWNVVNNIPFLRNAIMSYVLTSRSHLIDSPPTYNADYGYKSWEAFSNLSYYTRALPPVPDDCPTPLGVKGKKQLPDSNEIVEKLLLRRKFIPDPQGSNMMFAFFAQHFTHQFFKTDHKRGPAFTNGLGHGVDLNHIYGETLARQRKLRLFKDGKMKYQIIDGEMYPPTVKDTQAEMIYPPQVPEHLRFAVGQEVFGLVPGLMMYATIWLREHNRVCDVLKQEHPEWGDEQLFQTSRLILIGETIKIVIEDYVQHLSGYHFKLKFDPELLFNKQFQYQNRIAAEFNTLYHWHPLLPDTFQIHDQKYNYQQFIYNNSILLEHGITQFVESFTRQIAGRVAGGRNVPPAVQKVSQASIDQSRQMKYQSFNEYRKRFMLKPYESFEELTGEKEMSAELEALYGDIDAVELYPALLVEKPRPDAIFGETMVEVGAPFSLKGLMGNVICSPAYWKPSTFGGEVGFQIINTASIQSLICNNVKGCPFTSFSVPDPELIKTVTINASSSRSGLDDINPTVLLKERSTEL
Protocol: (§1) Compounds were tested as inhibitors of cyclooxygenase activity in whole cell and microsomal cyclooxygenase assays. Both of these assays measured prostaglandin E2 synthesis in response to arachidonic acid, using a radioimmunoassay. Cells used for whole cell assays, and from which microsomes were prepared for microsomal assays, were human osteosarcoma 143 cells (which specifically express cyclooxygenase-2) and human U-937 cells (which specifically express cyclooxygenase-1). In these assays, 100% activity is defined as the difference between prostaglandin E2 synthesis in the absence and presence of arachidonate addition. Compounds of the present invention are inhibitors of cyclooxygenase-2 and are thereby useful in the treatment of cyclooxygenase-2 mediated diseases as enumerated above. The activities of the compounds against cyclooxygenase may be seen in the representative results shown below. In the assay, inhibition is determined by measuring the amount of prostaglandin E2 (PGE2) synthesized in the presence of arachidonic acid, cyclooxygenase-1 or cyclooxygenase-2 and a putative inhibitor. The IC50 values represent the concentration of putative inhibitor required to return PGE2 synthesis to 50% of that obtained as compared to the uninhibited control. For purposes of this specification, a compound is a selective inhibitor of COX-2 over COX-1 if the ratio of IC50 's for COX-1: COX-2 is 100 or greater, preferably 500 or greater. The results for inhibition of PGE2 production may be seen in Table III.

[2] = target: T2, cyclooxygenase-1 (Homo sapiens, UniProt P23219); test: Inhibition of cyclooxygenase activity: Cox-1 (PGE2 production in response to arachidonic acid, radioimmunoassay; human U-937 cells); format: cell-based; details: read-out: Cox-1% inhib.; for inhibition at 0.1 µM: Conc. 100 nM; for inhibition at 1 µM: Conc. 1000 nM
T2 construct: human U-937 cells (which specifically express cyclooxygenase-1); endogenous in cells; host or cells: human U-937 cells
Protocol: as §1

T2 sequence (P23219 24-599): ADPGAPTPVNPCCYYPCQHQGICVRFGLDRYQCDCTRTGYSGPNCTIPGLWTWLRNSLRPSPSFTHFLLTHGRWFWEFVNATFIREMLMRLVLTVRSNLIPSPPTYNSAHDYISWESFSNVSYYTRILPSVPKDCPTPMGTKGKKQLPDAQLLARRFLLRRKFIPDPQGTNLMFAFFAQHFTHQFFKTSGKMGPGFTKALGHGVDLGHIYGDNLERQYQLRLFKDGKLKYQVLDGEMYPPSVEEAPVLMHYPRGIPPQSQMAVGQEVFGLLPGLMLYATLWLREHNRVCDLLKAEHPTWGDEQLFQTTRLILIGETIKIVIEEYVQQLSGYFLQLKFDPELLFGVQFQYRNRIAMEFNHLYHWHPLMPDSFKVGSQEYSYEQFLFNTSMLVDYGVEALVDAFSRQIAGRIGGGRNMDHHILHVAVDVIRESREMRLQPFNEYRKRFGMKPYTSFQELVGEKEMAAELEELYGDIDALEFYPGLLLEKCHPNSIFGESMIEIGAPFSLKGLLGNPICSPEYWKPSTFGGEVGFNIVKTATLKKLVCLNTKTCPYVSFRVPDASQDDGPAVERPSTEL

SMILES: CS(=O)(=O)c1ccc(-c2c(-c3ccccc3)oc3ccccc23)cc1 [Example 1, 3-(4-(Methylsulfonyl)phenyl)-2-phenylbenzo[b]furan]
- inhibition at 0.1 µM [1]: 94%
- inhibition at 0.1 µM [2]: 0%

SMILES: CS(=O)(=O)c1ccc(-c2c(-c3ccccc3)sc3ccccc23)cc1 [Example 2, 3-(4-(Methanesulfonyl)phenyl)-2-phenylbenzo[b]thiophene]
- inhibition at 1 µM [1]: 17%
- inhibition at 1 µM [2]: 3%

SMILES: CS(=O)(=O)c1ccc(C2=C(c3ccccc3)C(=O)c3ccccc32)cc1 [Example 3, 3-(4-(Methylsulfonyl)phenyl)-2-phenylinden-1-one]
- inhibition at 0.1 µM [1]: 80%
- inhibition at 0.1 µM [2]: 5%

SMILES: CS(=O)(=O)c1ccc(-c2c(-c3ccc(F)cc3)[nH]c3ccccc23)cc1 [Example 4, 2-(4-Fluorophenyl)-3-(4-(methylsulfonyl)phenyl)indole]
- inhibition at 0.01 µM ([1]; Conc. 10 nM): 58%
- inhibition at 1 µM [2]: 0%

SMILES: CS(=O)(=O)c1ccc(-c2[nH]c3ccccc3c2-c2ccc(F)cc2)cc1 [Example 5, 3-(4-Fluorophenyl)-2-(4-(methylsulfonyl)phenyl)indole]
- inhibition at 0.1 µM [1]: 86%
- inhibition at 0.1 µM [2]: 21%

SMILES: CS(=O)(=O)c1ccc(-c2c(-c3ccc(F)cc3)sc3c2COC3=O)cc1 [Example 6, 2-(4-Fluorophenyl)-3-(4-(methylsulfonyl)phenyl)-4H-thieno[2,3-c]furan-6-one]
- inhibition at 0.015 µM ([1]; Conc. 15 nM): 50%
- inhibition at 0.015 µM ([2]; Conc. 15 nM): 0%

SMILES: CS(=O)(=O)c1ccc(-c2c(-c3ccc(F)c(F)c3)sc3c2COC3=O)cc1 [Example 7, 2-(3,4-Difluorophenyl)-3-(4-(methylsulfonyl)phenyl)-4H-thieno[2,3-c]-furan-6-one]
- inhibition at 0.1 µM [1]: 64%
- inhibition at 1 µM [1]: 100%
- inhibition at 1 µM [2]: 4%

SMILES: NS(=O)(=O)c1ccc(-c2c(-c3ccc(F)cc3)sc3c2COC3=O)cc1 [Example 8, 2-(4-Fluorophenyl)-3-(4-(aminosulfonyl)phenyl)-4H-thieno[2,3-c]furan-6-one]
- inhibition at 0.1 µM [1]: 42%
- inhibition at 10 µM ([2]; Conc. 10000 nM): 26%

SMILES: NS(=O)(=O)c1ccc(-c2c(-c3ccc(F)c(F)c3)sc3c2COC3=O)cc1 [Example 9, 2-(3,4-Difluorophenyl)-3-(4-(aminosulfonyl)phenyl)4H-thieno-[2,3-c]furan-6-one]
- inhibition at 0.1 µM [1]: 98%
- inhibition at 1 µM [1]: 99%
- inhibition at 1 µM [2]: 21%

SMILES: CS(=O)(=O)c1ccc(-c2c(-c3ccccc3)sc3c2CC(=O)OC3)cc1 [Example 10, 3-(4-(Methylsulfonyl)phenyl)-2-phenyl-4,7-dihydro-thieno[2,3-c]pyran-5-one]
- inhibition at 0.1 µM [1]: 65%
- inhibition at 1 µM [1]: 91%
- inhibition at 1 µM [2]: 28%
